Our source for the Kinact/Kl values is patent publication US20250230165A1, “HETEROCYCLIC COMPOUNDS FOR USE IN THE TREATMENT OF CANCER” (ARTIOS PHARMA LIMITED, priority 2021, published 2025).

Each structure is given as a SMILES string.

The test has as its target T1, Human Polθ polymerase domain (aa1820-2590) (Homo sapiens, UniProt O75417).
T1 construct: Human Polθ polymerase domain (aa1820-2590) was expressed in E. coli; made in house; host or cells: E. coli
T1 sequence (O75417 1820-2590): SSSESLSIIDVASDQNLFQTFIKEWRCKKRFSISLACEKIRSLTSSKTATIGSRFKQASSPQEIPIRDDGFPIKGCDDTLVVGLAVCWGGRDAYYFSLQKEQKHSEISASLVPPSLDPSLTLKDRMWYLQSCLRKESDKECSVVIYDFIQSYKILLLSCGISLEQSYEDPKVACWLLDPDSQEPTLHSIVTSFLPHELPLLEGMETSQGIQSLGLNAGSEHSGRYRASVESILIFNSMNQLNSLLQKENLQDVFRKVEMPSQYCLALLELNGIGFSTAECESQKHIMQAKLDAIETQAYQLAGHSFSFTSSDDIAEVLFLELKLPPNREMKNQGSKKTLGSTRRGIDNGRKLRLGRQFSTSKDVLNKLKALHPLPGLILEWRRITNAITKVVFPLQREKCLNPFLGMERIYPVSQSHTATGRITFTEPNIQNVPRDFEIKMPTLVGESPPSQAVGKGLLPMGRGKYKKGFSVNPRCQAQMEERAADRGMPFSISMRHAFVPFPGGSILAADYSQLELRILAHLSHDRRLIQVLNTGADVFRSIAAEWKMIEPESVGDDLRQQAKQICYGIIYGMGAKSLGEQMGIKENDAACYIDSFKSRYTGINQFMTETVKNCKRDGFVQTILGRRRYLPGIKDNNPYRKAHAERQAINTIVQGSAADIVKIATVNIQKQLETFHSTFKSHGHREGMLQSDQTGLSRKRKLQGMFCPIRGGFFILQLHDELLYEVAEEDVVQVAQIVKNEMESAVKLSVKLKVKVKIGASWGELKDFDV
As to the kind of experiment: Polθ Polymerase Domain Kinact/KI Assay (PicoGreen). Format: biochemical. Particulars: 0.8 nM Polθ, 100 nM DNA substrate, kobs vs [I] fit for 2-step covalent inhibitor. On the procedure:
Polθ Polymerase Domain Kinact/KI Assay
A PicoGreen assay was used to measure the Kinact and KI values of covalent compounds that inhibit the activity of Polθ in vitro.
Human Polθ polymerase domain (aa1820-2590) was expressed in E. coli, purified, aliquoted and stored at −80° C. until required. Polθ substrate was generated from a 1.2:1 mix of DNA II Short to DNA II Long to give a final concentration of […] substrate in annealing buffer (20 mM Tris pH 7.5, 50 mM NaCl). The substrate was heated in […] aliquots to 95° C. in a heating block for 5 min before the heating block switched off, the reaction left to cool to rt and stored at −20° C. until required.
Assay measurements were performed with 1× buffer comprising 25 mM Tris pH 7.5, 12.5 mM NaCl, […], 5% (v/v) glycerol, 0.01% v/v Triton x-100, 0.1 mg/ml BSA, 1 mM DTT. Test compounds were prepared by dilution in 100% DMSO to give a 12 μM intermediate stock of each (100× final top concentration). 100 nL of 23×1:1.5-fold serial dilutions and a DMSO only control were dispensed using the Tecan dispenser into Greiner 384 well black low volume plates (product code 784076). DMSO concentration was maintained at 1% of the final assay volume by back filling with DMSO.
2× Working stock of substrate (200 nM of DNA substrate and […] dNTPs) and enzyme ([…] PolΘ) were made up in assay buffer. 5 μL/well of both enzyme and substrate 2× solutions were dispensed using a Tempest dispenser (Formulatrix) into assay plates that had been pre-dispensed with compound to give a final assay concentration of 100 nM DNA substrate, […] dNTPs and 0.8 nM Polθ. To stop the reaction, […] of a solution containing 25 mM Tris-HCl pH 7.5 and 20 mM EDTA was added at […] (t=0, 2.5, 5, 7.5, 10, 12.5, 15, 20, 25, 30, 35, 40, 45, 50, 55 and 60 min) using the Tempest's time delay function. The plates were covered during the time course to prevent evaporation. After completing the assay, 5 μL of detection reagent (25 mM Tris-HCl pH 7.5 and 2.5% (v/v) PicoGreen) was dispensed into the wells using a Tempest liquid handler (Formulatrix) and plates subsequently read on the CLARIOstar Plus (BMG Labtech) using the default optical settings for fluorescein and the auto gain/focus settings.
All data analysis was carried out using GraphPad Prism V.8 (GraphPad Software Inc, San Diego, CA) Time course data for each inhibitor concentration was fitted to equation 1 to determine kobs values.^1 Any time points where the control (DMSO alone) reaction was no longer linear were excluded from the analysis. 1) Evaluation of Enzyme Inhibitors in Drug Discovery (Ch9), R. A Copeland, Wiley, 2nd Edition 2013.
A secondary plot of kobs vs [I] is used to determine the Kinact and KI parameters (for a 2-step covalent inhibitor) by fitting to equation 2.^1
`C=CC(=O)N1CC[C@]12CCN(CCN1C[C@H]3CC(=O)N(c4cc(C(F)(F)F)cc(C)n4)[C@@H]3C(=O)N(C)c3cccc(F)c31)C2` (racemic) [Example 21a, (3aR,11aS)-5-(2-((S/R)-1-acryloyl-1,6-diazaspiro[3.4]octan-6-yl)ethyl)-6-fluoro-10-methyl-1-(6-methyl-4-(trifluoromethyl)pyridin-2-yl)-1,3a,4,5,10,11a-hexahydro-2H-benzo[b]pyrrolo[2,3-f][1,4]diazocine-2, 11(3H)-dione] came in with a Kinact/Kl of 54000 M⁻¹ s⁻¹.

Turning to `C=CC(=O)N1CCN2CCN(CCN3C[C@H]4CC(=O)N(c5cc(C(F)(F)F)cc(C)n5)[C@@H]4C(=O)N(C)c4cccc(F)c43)C[C@H]2C1` (racemic) [Example 23a, (3aR,11aS)-5-(2-((S/R)-8-acryloyloctahydro-2H-pyrazino[1,2-a]pyrazin-2-yl)ethyl)-6-fluoro-10-methyl-1-(6-methyl-4-(trifluoromethyl)pyridin-2-yl)-1,3a,4,5,10,11a-hexahydro-2H-benzo[b]pyrrolo[2,3-f][1,4]diazocine-2, 11(3H)-dione], the Kinact/Kl turned out to be 140000 M⁻¹ s⁻¹.

Molecule `C=CC(=O)N1CC2(CN(CCN3C[C@H]4CC(=O)N(c5cc(C(F)(F)F)cc(C)n5)[C@@H]4C(=O)N(C)c4cccc(F)c43)C[C@H]3COCCN32)C1` (racemic) [Example 24b, (3aR,11aS)-5-(2-((S/R)-1-acryloyltetrahydro-1′H-spiro[azetidine-3,6′-pyrazino[2,1-c][1,4]oxazin]-8′(7′H)-yl)ethyl)-6-fluoro-10-methyl-1-(6-methyl-4-(trifluoromethyl)pyridin-2-yl)-1,3a,4,5,10,11a-hexahydro-2H-benzo[b]pyrrolo[2,3-f][1,4]diazocine-2, 11(3H)-dione] had a Kinact/Kl of 290000 M⁻¹ s⁻¹.

The molecule `C=CC(=O)N1CC2(CN(CCN3C[C@H]4CC(=O)N(c5cc(C(F)(F)F)cc(C)n5)[C@@H]4C(=O)N(C)c4cccc(Cl)c43)C[C@H]3COCCN32)C1` (racemic) [Example 26b, (3aR,11aS)-5-(2-((S/R)-1-acryloyl-tetrahydro-1′H-spiro[azetidine-3,6′-pyrazino[2,1-c][1,4]oxazin]-8′(7′H)-yl)ethyl)-6-chloro-10-methyl-1-(6-methyl-4-(trifluoromethyl)pyridin-2-yl)-1,3a,4,5,10,11a-hexahydro-2H-benzo[b]pyrrolo[2,3-f][1,4]diazocine-2, 11(3H)-dione] registered a Kinact/Kl of 1.29e+06 M⁻¹ s⁻¹.

Consider `C=CC(=O)N1CC2(C1)NCCN(CCN1C[C@H]3CC(=O)N(c4cc(C(F)(F)F)cc(C)n4)[C@@H]3C(=O)N(C)c3cccc(F)c31)[C@H]2C` (racemic) [Example 34a, (3aR,11aS)-5-(2-((S/R)-2-acryloyl-9-methyl-2,5,8-triazaspiro[3.5]nonan-8-yl)ethyl)-6-fluoro-10-methyl-1-(6-methyl-4-(trifluoromethyl)pyridin-2-yl)-1,3a,4,5, 10,11a-hexahydro-2H-benzo[b]pyrrolo [2,3-f][1,4]diazocine-2,11(3H)-dione], for which the Kinact/Kl is 1.2e+06 M⁻¹ s⁻¹.

Molecule `C=CC(=O)N1CC(N(C)C[C@H](O)CN2C[C@H]3CC(=O)N(c4cc(C(F)(F)F)cc(C)n4)[C@@H]3C(=O)N(C)c3cccc(Cl)c32)C1` (racemic) [Example 68, (3aR,11aS)-5-((S/R)-3-((1-acryloylazetidin-3-yl)(methyl)amino)-2-hydroxypropyl)-6-chloro-10-methyl-1-(6-methyl-4-(trifluoromethyl)pyridin-2-yl)-1,3a,4,5,10,11a-hexahydro-2H-benzo[b]pyrrolo[2,3-f][1,4]diazocine-2,11(3H)-dione] registered a Kinact/Kl of 660000 M⁻¹ s⁻¹.
